Data from patent US8377911B2, “Diuretics” (Merck Sharp & Dohme Corp., priority 2009, dated 2013).

Test system: Male beagle dogs
Experiment: canine telemetry protocol, blood pressure reduction efficacy
Type: in vivo
Conditions: telemetered male beagle dogs, 3 mg/kg, oral gavage
Experimental: Compounds of the invention were evaluated for blood pressure reduction efficacy using the following canine telemetry protocol.
Male beagle dogs (approximately 1-3 years old) with a body weight of between 10 and 16 kg were surgically implanted with DSI radiotelemetry devices (model: TL11M2-D70-PCT). Briefly, under an inhalant anesthesia, isoflurane/oxygen mixture (1-3.5%/to effect), the body of the telemetry device was positioned and secured intra-abdominally. Subsequently, the arterial catheter of the telemetry device was passed subcutaneously to the inguinal area and introduced into the femoral artery and advanced to the level of the descending aorta. The catheter was secured with 2-0 silk ligatures. The muscle and underlying fascia was closed over the catheter using absorbable suture and the skin was closed using non-absorbable suture. The animals were allowed a minimum recovery period of 2 weeks between surgery and the evaluation of test compounds.
Compound evaluation consisted of a 3 day paradigm at a 3 mg/kg dose. On the first day, no compounds were administered during a 24 hour period of baseline data collection. Blood pressure and heart rate data were collected continuously for one minute periods at 10 minute intervals. On the days of compound administration half the animals received test article with the other half receiving the vehicle used for compound formulation. All test materials were administered by oral gavage in a volume of 1 mL/kg. Data are expressed either as raw values (mm Hg or beats per minute) or as the change from baseline (average value for about 12 hours in low activity period prior to dosing). Change is SBP (systolic blood pressure) and PP (pulse pressure) over time is shown below: […]

| SMILES | ΔPP (pulse pressure), change from baseline, 1-6 h [mm Hg] | ΔSBP (systolic blood pressure), change from baseline, 1-6 h [mm Hg] | ΔPP (pulse pressure), change from baseline, 6-12 h [mm Hg] | ΔSBP (systolic blood pressure), change from baseline, 6-12 h [mm Hg] | ΔPP (pulse pressure), change from baseline, 12-18 h [mm Hg] | ΔSBP (systolic blood pressure), change from baseline, 12-18 h [mm Hg] |
| --- | --- | --- | --- | --- | --- | --- |
| CCCC(C)ON=[N+]([O-])N1CCC[C@H]1C(=O)Oc1c(C)ncc2c1CO[C@H]2c1ccc(Cl)cc1 (stereo in doubt) [Example 9, (3S)-3-(4-Chlorophenyl)-6-methyl-1,3-dihydrofuro[3,4-c]pyridin-7-yl 1-[(Z)-pentan-2-yloxy-NNO-azoxy]-L-prolinate] | −10.6 | −11.8 | −5.2 | −6.6 | −2.5 | 1.0 |
| CCCCO/N=[N+](\[O-])N1CCC(C(=O)Oc2c(C)ncc3c2CO[C@H]3c2ccc(Cl)cc2)CC1 [Example 12, (3S)-3-(4-Chlorophenyl)-6-methyl-1,3-dihydrofuro[3,4-c]pyridin-7-yl 1-[(Z)-butoxy-NNO-azoxy]piperidine-4-carboxylate] | −12 | −11 | −5.8 | −5.8 | 0.8 | 3.3 |
| Cc1ncc2c(c1OC(=O)[C@@H]1CCCN1[N+]([O-])=NOCC(C)C)CO[C@H]2c1ccc(Cl)cc1 (stereo in doubt) [Example 5, (3S)-3-(4-Chlorophenyl)-6-methyl-1,3-dihydrofuro[3,4-c]pyridin-7-yl 1-[(Z)-2-methylpropoxy-NNO-azoxy]-L-prolinate] | −3.6 | −2.4 | −1.7 | −2.6 | −2.6 | −2.8 |
| Cc1ncc2c(c1OC(=O)[C@@H]1CCCN1[N+]([O-])=NOC1CCCCC1)CO[C@H]2c1ccc(Cl)cc1 (stereo in doubt) [Example 11, (3S)-3-(4-Chlorophenyl)-6-methyl-1,3-dihydrofuro[3,4-c]pyridin-7-yl 1-[(Z)-cyclohexyloxy-NNO-azoxy]-L-prolinate] | −6.9 | −9.3 | −2.3 | −3.3 | 0.9 | 3.9 |
| CCCCON=[N+]([O-])N1CCC[C@H]1C(=O)Oc1c(C)ncc2c1CO[C@H]2c1ccc(Cl)cc1 (stereo in doubt) [Example 1, (3S)-3-(4-Chlorophenyl)-6-methyl-1,3-dihydrofuro[3,4-c]pyridin-7-yl 1-[(Z)-butoxy-NNO-azoxy]-L-prolinate] | −14.0 | −15.4 | −6.4 | −6.2 | −3.2 | −0.6 |
| CC[C@H](C)CON=[N+]([O-])N1CCC[C@H]1C(=O)Oc1c(C)ncc2c1CO[C@H]2c1ccc(Cl)cc1 (stereo in doubt) [Example 10, (3S)-3-(4-Chlorophenyl)-6-methyl-1,3-dihydrofuro[3,4-c]pyridin-7-yl 1-((Z)-{[(2S)-2-methylbutyl]oxy}-NNO-azoxy)-L-prolinate] | 0.6 | −5.3 | 3.4 | −0.9 | 3.8 | −3.1 |
